US20040018983A1, “Antifungal compositions” (Achillion Pharmaceuticals, Inc., priority 2001, published 2004)
≈ marks a conversion by molar mass, not a printed value. Like-named read-outs stand apart in the source and are kept apart here.

Test system: C. albicans
Test: Fungal susceptibility to zinc finger selective antifungals: broth microdilution growth inhibition (OD 405 nm), with and without a zinc finger blocking compound
Format: cell-based, Candida albicans
Conditions: for MIC: Candida albicans, 48 h, read-out: C. albicans MIC; for Fold Increase: increase of MIC with blocking compound (cysteine or glutathione) over MIC alone; for C. albicans MIC + 200 μg/ml cysteine: with 200 μg/ml cysteine as zinc finger blocking compound; for C. albicans MIC + 200 μg/ml glutathione: with 200 μg/ml glutathione as zinc finger blocking compound; for blocking of antifungal action by glutathione and cysteine (zinc finger mechanism): discussion of Table 2
Method: A panel of Candida clinical isolates (including azole-resistant species) plus single isolates of Aspergillus fumigates, were used to evaluate the activity of the test compounds in vitro. Inocula were prepared as broth cultures (yeasts) or as suspensions of fungal material made from agar slope cultures (molds). The test compounds were pipetted from DMSO stock solution into water to provide a series of […] dilutions. […] (other fungi). Growth in the microcultures was measured by its optical density (OD) measured at a wavelength of 405 nm. The OD for cultures with test compounds was calculated as a percentage of the control, drug-free OD. Inhibition of growth to 35% of control or less was recorded as significant inhibition (Table 2).

[1] = no blocking compound, CYG medium, 2 days at 37° C., inhibition of growth to 35% of control or less

| MIC [1] [µg/mL] | Structure (SMILES) | Fold Increase [Fold] | C. albicans MIC + 200 μg/ml cysteine [µg/mL] | C. albicans MIC + 200 μg/ml glutathione [µg/mL] | blocking of antifungal action by glutathione and cysteine (zinc finger mechanism) | MIC [µg/mL] |
| --- | --- | --- | --- | --- | --- | --- |
| 4 (≈ 22.8 µM) | O=Nc1ccc2oc(=O)ccc2c1 [Compound 2, 6-nitroso-1,3-benzopyrene] | 4 | 16 | 16 | – | – |
| 8 (≈ 34.7 µM) | c1csc(SSc2cccs2)c1 [Compound 6, di(2-thienyl)disulphide] | 2 | 16 | 16 | – | – |
| – | CN(C)c1ccc(N=O)cc1 [Compound 9, 4-nitroso-N,N-dimethylaniline] | – | – | – | blocked to a somewhat different extent by the two different blocking compounds, but in both cases the effect is significant | – |
| – | O=Nc1ccc(Nc2ccccc2)cc1 [Compound 12, 4-nitrosodiohenylamine] | 8 | 16 | 16 | – | 2 (≈ 10.1 µM) |

| Structure (SMILES) | MIC [1] [µg/mL] | Fold Increase [Fold] | C. albicans MIC + 200 μg/ml cysteine [µg/mL] | C. albicans MIC + 200 μg/ml glutathione [µg/mL] | blocking of antifungal action by glutathione and cysteine (zinc finger mechanism) | MIC [µg/mL] |
| --- | --- | --- | --- | --- | --- | --- |
| Cc1ccccc1N=O [Compound 4, 2-nitrosotoluene] | 16 (≈ 132 µM) | 0 | 16 | 16 | not blocked by either glutathione or cysteine | – |
